2 molecules from patent EP0919125A1, “Synergistic antimicrobial composition” (Calgon Corporation, priority 1997, dated 1999) can be followed below.

Common to all, as to type: cell-based
The test system of test [1] is Pseudomonas aeruginosa (ATCC 15442). In words: Microtiter test of biocidal efficacy and synergy (MIC/MBC, Kull K value), Example 1. As for the experimental part: An 8X stock solution of DBDCB was prepared by dissolving about 3.2 grams (g) of 20% active DBDCB in about 4 ml of methanol and diluting the volume up to about 100 ml with deionized water. The DBDCB used in the examples was obtained from Calgon Corporation, Pittsburgh, PA, as Merguard® 1200. A Triclosan 4X stock solution was prepared by dissolving about 0.16g of about 99% active Triclosan in about 5 ml of methanol and diluting the volume up to about 100 ml with deionized water. The Triclosan was obtained from Ciba Geigy as Irgasan® DP 300.
Two microtiter plates were prepared for use in the example, each microtiter plate having 8 rows, A-H, and 12 columns, 1-12. The amount of each biocide in each well of the plates is depicted below.
The amount of biocide in each well of the second microtiter plate of each set was a follows: TABLE 2
(§1) The minimum inhibitory concentration (MIC) for each biocide combination against Ps. aeruginosa was determined. The MIC is the least amount of biocide needed to prevent growth in the well, with growth being defined as turbidity in the medium or a "pellet" of cells which came out of the medium and settled at the bottom of the well.
Additional plates were then subcultured from the MIC plates at 24 hours following biocide addition. Subculturing was done to determine the minimum biocidal concentration (MBC). […]

Test [2] deals with Candida albicans (ATCC 10231). Kind of test: Microtiter test of biocidal efficacy and synergy (Kull K value), Example II, yeast. As to conditions: ATCC10231, 120 h. On the procedure:
as §1
(§2) Additional plates were then subcultured from the MIC plates at 24 hours following biocide addition. Subculturing was done to determine the minimum biocidal concentration (MBC). The MBC is the lowest concentration of biocide that results in no growth after subculturing and subsequent incubation.
All of the microtiter plates including the MIC plates and the MBC plates were incubated for 24 hours at 37°C. Following the 24 hour incubation period, the presence or absence of growth in each well of the plates was determined. Growth in the microtiter plates was determined with a Dynatech MR-5000 microplate reader, available from Dynatech Laboratories, Chantilly, VA, USA, the use of which will be familiar to one having ordinary skill in the art. The presence or absence of growth in each well, along with the concentration of biocide in each well, was then used to determine the synergistic properties of the biocide combinations. The synergistic properties were evaluated by determining the Kull value, or K value. […]

Test [3] relates to Pseudomonas aeruginosa (ATCC 15442). In words: Microtiter test of biocidal efficacy and synergy (Kull K value), Example II, bacterium. On the procedure:
as §1, §2
All of the microtiter plates including the MIC plates and the MBC plates were incubated for 24 hours at 37°C. Following the 24 hour incubation period, the presence or absence of growth in each well of the plates was determined. Growth in the microtiter plates was determined with a Dynatech MR-5000 microplate reader, available from Dynatech Laboratories, Chantilly, VA, USA, the use of which will be familiar to one having ordinary skill in the art. The presence or absence of growth in each well, along with the concentration of biocide in each well, was then used to determine the synergistic properties of the biocide combinations. The synergistic properties were evaluated by determining the Kull value, or K value. The method for calculating K value is well known to those skilled in the art. In this example, the K value was determined by the following formula: K=([DBDCB] In Combination)/([DBDCB] Alone)+([Triclosan] In Combination)/([Triclosan] Alone) [formula] where "[DBDCB]
A K value of less than 1 indicates synergy between the two biocides, a K value of greater than 1 indicates antagonism between the two biocides, and a K value equal to 1 indicates an additive effect of the two biocides.
Example I was repeated with the following differences. The DBDCB was tested at the following concentrations: 200, 100, 50, 25, 12.5, 6.25 and 3.125, with concentration given in ppm active. […]

Like-named read-outs stand apart in the source and are kept apart here.

As to `N#CCCC(Br)(C#N)CBr` (stereo not shown) [DBDCB, 1,2-dibromo-2,4-dicyanobutane], the MIC in test [1] (ATCC15442, concentration of DBDCB which, used alone, resulted in inhibition of microbial growth, ppm active, 24 hours at 37°C, read-out: [DBDCB] Alone) was found to be 200 µg/mL; in test [2] (DBDCB alone, inhibition of microbial growth, ppm active, 30°C for 5 days, read-out: [DBDCB] Alone), 100 µg/mL; in test [3] (DBDCB alone, inhibition of microbial growth, ppm active, 35°C for 24 hours), 200 ppm; in test [3] (Pseudomonas aeruginosa, ATCC15442, 24 h, DBDCB alone, inhibition of microbial growth, ppm active, 35°C for 24 hours, read-out: [DBDCB] Alone) it was 100 µg/mL.

In the case of `Oc1cc(Cl)ccc1Oc1ccc(Cl)cc1Cl` [Triclosan, 2,4,4'-trichloro-2'-hydroxydiphenyl ether], the MIC in test [1] (ATCC15442, 24 h, read-out: [Triclosan] Alone) is 100 µg/mL; in test [2] (read-out: [Triclosan] Alone), 12.5 µg/mL; in test [3] (Pseudomonas aeruginosa, ATCC15442, 24 h, read-out: [Triclosan] Alone) it was greater than 100 µg/mL.
